Laboratory results: paper PMC10560236, “A protein kinase C α and β inhibitor blunts hyperphagia to halt renal function decline and reduces adiposity in a rat model of obesity-driven type 2 diabetes” (Scientific Reports, 2023)
“And” between values parts separate entries of the source, which are not always exact repeats. Equal entries are not always repeated.

Assays:
PKCα/β = assay: In vivo kinase occupancy profiling of spleens (probe-based chemoproteomics); parameters: species or system rat; conditions: Cmpd 1 chow-dosed ZSF1 obese rats; only PKCα/β from over 200 detectable kinases
Protocol: In vivo kinase profiling Spleens from 22–23 week old ZSF1 obese male rats provided no drug Chow or Cmpd 1 chow (n = 2 each) were snap frozen, pulverized, and approximately 100–150 mg of each sample were sent to ActiveX for analysis using a probe-based chemoproteomics platform to measure the fraction of kinase bound versus unbound by an ATP-competitive inhibitor. A kinase bound by an ATP-competitive inhibitor such as Cmpd 1 will be less accessible to a covalent ATP probe, and will consequently have a reduced peak in quantitative mass spectrometry of the tryptic fragment corresponding to its active site pulled down by the covalent biotinylated ATP probe. Lysates from n = 2 animals for each group were combined for the analysis.

ZSF1 obese rats = assay: 10-week efficacy study with chow dosing; type: in vivo, rat
Source text: Male ZSF1 (ZSF1-Lepr^faLepr^cp/Crl) lean rats (strain code #379) and ZSF1 obese rats (strain code #378) were obtained from Charles River Laboratories (Wilmington, MA). Male rats for all groups were obtained at 8–9 weeks of age at which time they were switched to high carbohydrate Purina 5008 chow (27% kcal protein, 17% kcal fat, 57% kcal carbohydrates). At 21–22 weeks of age they were then enrolled in the 10 week study. All groups were maintained on normal Purina 5008 chow for the 10 week study except the Cmpd 1 group, which was provided Purina 5008 chow formulated with 0.744g Cmpd 1 per kg chow (approximately 50 mpk/d Cmpd 1 administration; n = 5 Lean, n = 12 Obese, n = 11 Cmpd 1, n = 11 Food matched—see Fig. 4a). The amount of food provided to the Food matched group each week was determined by the estimated food consumption by the Cmpd 1 group the previous week. For all three ZSF1 obese groups, 3 animals were taken down at study mid-point for an interim analysis. All experimental protocols involving animals were reviewed and approved by the Pfizer Inc. Institutional Animal Care and Use Committee (IACUC). All experiments were performed in accordance with relevant guidelines and regulations, and all methods are reported in accordance with ARRIVE guidelines (https://arriveguidelines.org).
Male ZSF1 obese rats that had been maintained on Purina 5008 chow were switched to Purina 5008 chow with or without 0.744 g/kg Cmpd 1 at 22 weeks of age. The study duration was 10 weeks. Estimated food consumption monitored weekly. An additional group of ZSF1 obese rats was included which received an amount of Purina 5008 chow to match the previous week’s estimated food consumption by the Cmpd 1 group. Five male ZSF1 lean littermates served as baseline controls. Intermediate blood samples were taken through tail vein. 24-h urine samples at weeks 0, 5 and 10 were collected from animals in metabolic cages. Animals were sacrificed by CO2 asphyxiation followed by blood collection via cardiac puncture and tissues fixation in 10% neutral buffered formalin for histology. Unfixed inguinal white adipose tissue was also collected at study termination for downstream molecular analyses.
All assays except the insulin assay were run with the ADVIA 1800 Chemistry System (Siemens Medical Systems Diagnostics, Tarrytown, NY, USA). The serum insulin assay was run using a SpectraMax® Plus384 Absorbance Microplate Reader (Molecular Devices San Jose, CA, USA). Siemens Medical System assay kits 10376501, 10311891, 10335892, and 10335891 were used for cholesterol, low density lipoprotein (LDL)-cholesterol, triglycerides, and glucose, respectively. Roche HDL-C Reagent 3rd generation assay kit 4713257190 was used for high density lipoprotein (HDL)-cholesterol assay. For insulin, an ALPCO Diagnostics assay kit 80-INSMS-E01 was used.
Samples of formalin-fixed, paraffin embedded (FFPE) liver and kidney were sectioned and stained for Hematoxylin and Eosin (HE) and evaluated microscopically by a board-certified veterinary pathologist blinded to the treatment groups. In the kidney, microscopic features were assigned an end stage renal disease (ESRD) severity score of 1–5 (minimal to severe) using the following criteria: Grade 1 (minimal): < 10% of parenchyma affected, few glomeruli affected and no Bowman’s capsule thickening with only few protein casts and basophilic tubules observed; Grade 2 (mild): 10–25% of renal parenchyma affected, there is scattered thickening of Bowman’s capsule, +/− synechiation; Grade 3 (moderate): 26–50% of renal parenchyma affected, glomerular and tubulointerstitial changes are present; Grade 4 (marked): 51–75% of renal parenchyma affected, glomerular and tubulointerstitial changes are present; Grade 5 (severe): > 75% of renal parenchyma affected, glomerular and tubulointerstitial changes are present. […]

ZSF1 lean and SD rats = assay: 7-day food consumption and body weight study, Cmpd 1 chow, ZSF1 lean and SD rats; type: in vivo, rat; conditions: 7 days
Source text: To evaluate food consumption in different rat strains, cohorts of 10 male ZSF1 obese rats, 8 male ZSF1 lean littermate rats, and 10 age-matched male Sprague Dawley (SD) rats were divided into two groups and fed chow with or without 0.744 g/kg Cmpd 1 (Cmpd 1 chow) for 7 days.

[1] = target: PKC activity in glomerular lysates from ZSF1 obese rats; assay: Radioactive pan-PKC kinase assay with glomerular lysates; type: biochemical, rat; conditions: glomerular lysates from 20-week old ZSF1 obese rats, pan-PKC pseudo-substrate peptide
Protocol: Glomeruli were isolated using an established protocol of serially sieving minced kidney cortex tissue through mesh filters of decreasing pore size[69]. For radioactive pan-PKC assays, glomeruli were lysed in a buffer consisting of 50 mM Tris–HCl pH 8, 5 mM EDTA, 5 mM EGTA, protease and phosphatase inhibitor cocktails, 1% 2-mercaptoethanol, and 0.028% n-dodecyl-β-D-maltopyranoside (Anatrace D310) by sonication using two 10 s pulses with a probe sonicator. Supernatants were collected following centrifugation at 4 °C at 20,200 × g for 10 min. A 25 μL aliquot was used in a 50 μL ^32P-ATP pan-PKC radioactive kinase assay with the pan-PKC pseudo-substrate peptide RFARKGSLRQKNV. The reaction was incubated for 10 min at 37 °C prior to filter binding and scintillation counting. Data are reported as CPM incorporation per μg of total protein in the reaction, as determined using Pierce Coomassie Plus Protein Assay of the original lysate (Pierce 23236). Where indicated, the reaction was run in the presence of increasing amounts of Cmpd 1.

IC50 [1]: 70 nM
SMILES: Cc1ncc(F)c(Nc2n[nH]c3c2CN(C(=O)N2C[C@@H](C)N(CC4CCOCC4)C[C@@H]2C)C3(C)C)n1 [Cmpd 1, 5-[(2S,5R)-2,5-dimethyl-4-(tetrahydro-2H-pyran-4-ylmethyl)piperazin-l-yl]carbonyl-N-(5-fluoro-2-methylpyrimidin-4-yl)-6,6-dimethyl-1,4,5,6-tetrahydropyrrolo[3,4-c]pyrazol-3-amine]
Kinase occupancy in spleen (PKCα/β): > 90% | Progressive decline in renal function (uMALB:creatinine ratio, 24-h urinary protein excretion) (ZSF1 obese rats; 10-week study, same in Food matched group): virtually halted | Average body weight at study termination (ZSF1 obese rats; 10 weeks Cmpd 1 chow): 504 g and 504 ± 35 g | Estimated food consumption at study termination (ZSF1 obese rats; 10 weeks Cmpd 1 chow): 31 g/day | Body weight less than Lean animals at study termination (ZSF1 obese rats; 10 weeks, not statistically different): approximately 7% | Estimated average food consumption, first three days (ZSF1 obese rats; Cmpd 1 chow approx. 50 mpk/day): 22 g/day | Reduction in food consumption versus Obese group, first three days (ZSF1 obese rats; Cmpd 1 chow approx. 50 mpk/day): 27% | Animals with liver macrovacuolation score of 0 (ZSF1 obese rats; after 10 weeks of dosing, score 0–3): five of eight | ESRD score at study termination (ZSF1 obese rats; blinded histology, versus Obese, comparable to Food matched group): reduced comparably | Serum cholesterol and triglyceride profile versus Obese group (ZSF1 obese rats; non-fasting serum): improved | Serum glucose levels (ZSF1 obese rats; non-fasting serum): elevated | Serum AST versus Obese group (ZSF1 obese rats; non-fasting, 5 weeks, statistically significant, not evident at 10 weeks): increased | Serum ALT versus Obese group (ZSF1 obese rats; non-fasting, 10 weeks, statistically significant): reduced | Serum insulin (ZSF1 obese rats; non-fasting, week 5 study midpoint): 0.62 (± 0.35) ng/mL | ESRD severity grade of representative kidney image (ZSF1 obese rats; study endpoint, representative image Fig. 6c): Grade 1 (Grade 1 (minimal): < 10% of parenchyma affected) | Average body weight at study start (ZSF1 obese rats; study start, 21–22 weeks of age): 564 g | iWAT weight (ZSF1 obese rats; study termination): 29 ± 5.5 g | Increase in adipocyte size in iWAT (ZSF1 obese rats; study termination, histology, not in Food matched group): blunted | Average CD45+ cell staining area in iWAT (ZSF1 obese rats; study termination, immunohistochemistry): 0.045 ± 0.025% | Liver weights (ZSF1 obese rats; study termination, primarily reflected overall body weight differences): reduced | Body weight loss (ZSF1 lean and SD rats): did not
